According to patent US20220371988A1, “TRPV1 AGONIST AND PREPARATION METHOD THEREFOR AND USE THEREOF” (NANJING DELOVA BIOTECH CO. LTD., priority 2019, published 2022):
In brackets after ≈: the same amount, converted by molar mass. Where two headings read alike, the source gives them in different places.

Legend:
[1] = system: rats as models of pain after incision; test: Thermal hyperalgesia test (Hargreaves method) in rats as models of pain after incision; format: in vivo, SD rat
[2] = system: rats as models of pain after incision; test: Mechanical allodynia test (Von Frey method) in rats as models of pain after incision; format: in vivo, SD rat
[3] = parent drug, cited from earlier work
[4] = HD group: A-17 0.6 mg/animal, parent 0.36 mg/animal
[5] = LD group: A-17 0.15 mg/animal, parent 0.09 mg/animal

| Compound | Release half-life t1/2 (pH 4.5) | Release half-life t1/2 (pH 7.4) | Effect on overall thermal hyperalgesia (AUC of time-TWL curve) within 7 days vs blank preparation ([1]; HD group: A-17 0.6 mg/animal (P<0.001), parent 0.36 mg/animal (P<0.01)) | Duration of analgesic effect on thermal hyperalgesia [1, 4] | Effect on overall thermal hyperalgesia (AUC of time-TWL curve) within 7 days vs blank preparation [1, 5] | Time after surgery at which thermal withdrawal latency (TWL) was increased vs blank preparation group (P<0.05) ([1]; LD group: A-17 0.15 mg/animal, parent 0.09 mg/animal, injection at incision site) | Time after surgery at which paw withdrawal threshold (PWT) was increased vs blank preparation group (P<0.05) [2, 4] | Time after surgery at which paw withdrawal threshold (PWT) was increased vs blank preparation group (P<0.05) [2, 5] | Solubility in water ([3]; at 25° C.) | Log P [3] |
| --- | --- | --- | --- | --- | --- | --- | --- | --- | --- | --- |
| (E)-2-methoxy-4-(8-methylnonanamide)phenyl 2-([[1,4′-bipiperidin]-1′-yl) propanoate hydrochloride [Compound A-16] | About 73 h | About 157 h |  |  |  |  |  |  |  |  |
| COc1cc(CNC(=O)CCCC/C=C/C(C)C)ccc1O [trans-8-methyl-N-vanillyl-6-nonenamide] |  |  | effective in relieving the overall thermal hyperalgesia | 3 days | no significant effect | 1 h | 4 h | no significant effect | 8.41 µg/mL (≈ 27.5 µM) | 3.8 |
